The source made the active and inactive calls. The rule behind the calls is not given here.
Assays:
Experiment in all cases: PubChem AID 504934
[1] = system: Coup-TF1; details: nuclear receptor panel Gal4 luciferase reporter, at 10 µM
[2] = system: GCNR; details: nuclear receptor panel Gal4 luciferase reporter, at 10 µM
[3] = biological target: Peroxisome proliferator-activated receptor gamma (Homo sapiens) (UniProt P37231); details: nuclear receptor panel Gal4 luciferase reporter, PPARg, at 10 µM
[4] = system: RARg; details: nuclear receptor panel Gal4 luciferase reporter, at 10 µM

Sequence of Peroxisome proliferator-activated receptor gamma (Homo sapiens) (P37231 whole entry, looked up, the tested form may be a part): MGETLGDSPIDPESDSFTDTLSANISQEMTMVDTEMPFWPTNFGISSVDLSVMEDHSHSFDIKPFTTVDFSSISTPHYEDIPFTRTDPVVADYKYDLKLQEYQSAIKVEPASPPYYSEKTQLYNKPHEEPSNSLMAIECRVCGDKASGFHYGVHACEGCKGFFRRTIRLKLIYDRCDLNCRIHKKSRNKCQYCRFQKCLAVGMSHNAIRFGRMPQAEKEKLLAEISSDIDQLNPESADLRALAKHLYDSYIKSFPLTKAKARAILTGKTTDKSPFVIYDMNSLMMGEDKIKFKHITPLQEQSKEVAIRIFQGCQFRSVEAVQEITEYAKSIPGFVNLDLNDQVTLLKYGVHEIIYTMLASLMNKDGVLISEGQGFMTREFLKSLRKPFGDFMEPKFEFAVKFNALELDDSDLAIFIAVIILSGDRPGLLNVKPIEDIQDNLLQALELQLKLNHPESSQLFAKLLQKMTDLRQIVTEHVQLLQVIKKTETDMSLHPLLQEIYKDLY

O=c1cc(N2CCN(c3cccc(Cl)c3)CC2)[nH]c(=O)n1C1CCCCC1
fold change [1]: 0.72 | fold change [2]: 1.06 (inactive) | fold change [3]: 0.86 (inactive) | fold change [4]: 0.56

Reference: PubChem BioAssay AID504934 (The Scripps Research Institute Molecular Screening Center, 2011)
